# Laboratory results as given in US10166221B2, “Formulations of an LSD1 inhibitor” (Incyte Corporation, priority 2016, dated 2019).
# Counter-ions that a name gives are not always drawn.
# How the values were obtained:
# [1] = Excipient compatibility, UV HPLC method (degradation, impurities other than Compound 2)
# Description: This study was performed to determine stability of Compound 1 di-tosylate salt, Form I, in combination with various oral solid dosage form excipients. […] The data of the blends were compared with a control sample (Compound 1 di-tosylate salt alone) to assess the effect of each excipient relative to Compound 1 di-tosylate salt alone.
# Blends were prepared by screening the components together; aliquots were then weighed for stability testing. The binary blend samples were initially stored under accelerated conditions (50° C./dry, 50° C./75% RH) in open glass vials and analyzed by HPLC to determine the potential for drug substance degradation with each excipient. […] Analysis of a control (Compound 1 di-tosylate salt alone) was included for comparison at each condition.
# Compound 1 di-tosylate salt was blended at the desired ratio of excipient to drug (see Table 7 below) by weighing each material, mixing with a spatula in a vial, and screening the mixture 5 times with an 18 mesh screen. A control sample was included for comparison to the blends. The weight equivalent of approximately 4 mg of Compound 1 di-tosylate salt was added to each glass vial and initially set-up at 50° C./dry (<20% RH) and 50° C./75% RH. Based on results after 1 week at 50° C.; additional samples were set-up at 40° C./dry and 40° C./75% RH. […] The 75% RH chamber was maintained by using a saturated sodium chloride solution in water (inside a closed chamber). The humidity of the 75% RH chamber was verified with a hygrometer (VWR brand). Samples were tested by HPLC after 1 week at 50° C. and 1 and 2 weeks at 40° C. (low and high RH at both temperatures). Data were also measured for samples at 20° C. in closed vials.
# Samples were analyzed by HPLC using the method described below after dilution in 85% H2O (0.1% TFA)/15% acetonitrile to 4 mL, sonication for 5 minutes, and filtration (0.45 μm Acrodisc GHP). One injection per sample was performed at each stability station. Two methods were performed on the stability samples: a UV based HPLC method and a mass spectroscopy HPLC method performed for one impurity (Compound 2).
# UV HPLC Method-Instrument: Agilent 1260 HPLC; Column: Ascentis Express C18 4.6×150 mm; Mobile Phase A: Water (0.1% TFA); Mobile Phase B: Acetonitrile (0.1% TFA); Flow Rate: 1.0 mL/min; Injection volume: 10 μL; UV Detection 214 nm; Column Temperature: 30° C.; Run Time: 33 min; Sample concentration: 1.0 mg/mL as salt; Threshold: 0.1%; Gradient Program:
# Accelerated storage (50° C., 40° C.) conditions were used to identify potential drug-excipient interactions.
# [2] = Crystalline form change under storage conditions; format: physicochemical; conditions: storage conditions of 25° C./60% RH and 40° C./75% RH
# Description: (§1) Form HI of Compound 1 di-tosylate salt was prepared during the process of drying a wet sample of Compound 1 di-tosylate salt, Form I, under ambient conditions. Form I slowly absorbed atmospheric moisture and gradually changed to crystalline Form HI.
# as §1, with “HI. […] Form HI can also be generated by purging humidified air (e.g., 60-85% RH) through Form I solid.” for “HI.”
# [3] = Excipient compatibility, mass spectroscopy HPLC method (% Compound 2); format: physicochemical
# Excerpt: (low and high RH at both temperatures).
# [4] = DVS moisture uptake analysis; format: physicochemical
# Description: Form DH was characterized by DVS. The DVS analysis was performed on a TA Instruments Vapor Sorption Analyzer, model VTI-SA^+. Form DH was generated by pre-drying Form HI on VTI at 40° C. with 0% RH N2 for 3 h. Then the moisture uptake profile was completed in one cycle in 5% RH increments with adsorption from 0% RH to 95% RH followed by desorption in 5% increments from 95% to […]. The equilibration criteria were 0.0010 wt % in 5 minutes with a maximum equilibration time of 180 minutes. All adsorption and desorption were performed at 25° C.
smiles,measurement,setting,value
"COCC1(CN[C@@H]2C[C@H]2c2ccccc2)CCN(CC2(C(=O)O)CCC2)CC1 [Cmpd 1 di-tosylate salt alone, 1-{[4-(methoxymethyl)-4-({[(1R,2S)-2-phenylcyclopropyl]amino}methyl)piperidin-1-yl]methyl}cyclobutanecarboxylic acid bis(4-methylbenzenesulfonate)]",Compound 1 di-tosylate salt degradation (UV Method),[1]; 1 W 40° C./75% RH,<0.1%
same,Compound 1 di-tosylate salt degradation (UV Method),[1]; 1 W 40° C./dry,0.43%
same,Compound 1 di-tosylate salt degradation (UV Method),"[1]; 1 w 50° C./75% RH, open glass vials, peak area percent",0.3%
same,Compound 1 di-tosylate salt degradation (UV Method),"[1]; 1 w 50° C./dry (<20% RH), open glass vials, peak area percent",1.4%
same,Compound 1 di-tosylate salt degradation (UV Method),[1]; 2 W 40° C./75% RH,<0.1%
same,Compound 1 di-tosylate salt degradation (UV Method),[1]; 2 W 40° C./dry,0.86%
same,20° C. 2 w UV method,"[1]; 20° C., 2 w, closed vials",<0.1%
same,Crystalline form change on storage,[2],converted to Form HI
same,% Compound 2,[3]; 1 w 50° C./75% RH,2.47%
same,% Compound 2,[3]; 1 w 50° C./dry,2.37%
same,2 W 20° C. % of cmpd 2,"[3]; 20° C., 2 w, closed vials",0.43%
same,wt % of Compound 2,[3]; 40° C. (dry) 1 W,1.4 wt %
same,wt % of Compound 2,[3]; 40° C. (dry) 2 W,3.4 wt %
same,wt % of Compound 2,[3]; 40° C./75% RH 1 w,1.3 wt %
same,wt % of Compound 2,[3]; 40° C./75% RH 2 w,1.9 wt %
COCC1(CN[C@@H]2C[C@H]2c2ccccc2)CCN(CC2(C(=O)O)CCC2)CC1 [Form DH],Hygroscopicity (DVS),"[4]; adsorption 0% RH to 95% RH, desorption 95% to 85% RH, 25° C.",hygroscopic
same,Solid collected after DVS,[4]; after DVS at 85% RH,Form HI
